Patent US11285119B2, “Anti-inflammatory composition” (NEOPHARM CO., LTD., priority 2016, dated 2022)

What was measured:
[1] = system: human fibroblast (ATCC 2076); test: Confirmation of cytotoxicity (MTT cell viability); type: cell-based; conditions: for Cell viability (%): human fibroblast, MTT
Experimental: The cell viability for human fibroblast (ATCC 2076) was measured using the anti-inflammatory composition prepared in the following Examples.
The human fibroblast (ATCC 2076) with a concentration of 5×10^4 cells/ml was inoculated into a 24-well culture plate of Iscove's Modified Dulbecco's Medium (IMDM, GIBCO) containing 10% bovine serum. […] Then, the supernatant was removed, the cells were washed with 200 μl of 5% phosphate buffered saline (PBS), 1.0 ml of MTT solution was added to each well, and after 4 hours, and the MTT was removed. Next, 1.0 ml of DMSO was added to each well, and incubation was performed overnight at 37° C. The absorbance at 570 nm was measured to determine the cell viability using Equation 1 below, and results thereof are shown in Table 1 below. Here, as a negative control group, a test group in which the active ingredient was not used was adopted. Cell viability (%)=(A570λvalue/B570λvalue)×100 [Equation 1]
A: Absorbance value at 570 nm of Example
B: Absorbance value at 570 nm of negative control group

IL-8 = test: Anti-inflammatory effect: IL-8 expression in atopic dermatitis-induced 3D culture tissue (immunohistochemistry); type: cell-based; conditions: compared with the skin model in which atopic dermatitis was induced, 72 hours, quantified immunohistochemistry (FIG. 2), read-out: IL-8 inhibitory effect
Experimental: (§1) In order to measure the anti-inflammatory efficacy, atopic dermatitis was induced with respect to IL-8 and IL-17A, which are inflammation-inducing cytokines, and expression amounts thereof were measured.
(§2) In order to induce atopic dermatitis, the 3D culture tissue (EpiDerm Full Thickness 400, sold by MatTek) media containing Poly (I:C), TNF-α, IL-4 and IL-13 were used, and treated for 72 hours with N-(2-hydroxyethyl)octanamide at a final concentration of 100 μM. Then, the 3D culture tissue was immobilized on formalin to make a paraffin block, and the degree of expression of inflammation-inducing cytokine was evaluated.
(§3) In FIG. 1, AD represents a skin model in which atopic dermatitis was induced, and the anti-inflammatory effect was evaluated based on the expression amounts of IL-8 and IL-17A.
(§4) Further, the inhibitory effect of each cytokine was quantified based on the results obtained through the immunohistochemistry obtained in FIG. 1, and shown in FIG. 2.

IL-17A = test: Anti-inflammatory effect: IL-17A expression in atopic dermatitis-induced 3D culture tissue (immunohistochemistry); type: cell-based; conditions: compared with the skin model in which atopic dermatitis was induced, 72 hours, quantified immunohistochemistry (FIG. 2), read-out: IL-17A inhibitory effect
Experimental: as §1, §2, §3, §4

atopic dermatitis = test: Atopic dermatitis improvement effect (EASI score) in pediatric patients; type: in vivo, human; conditions: 30 pediatric patients with atopic dermatitis, twice a day for 4 weeks
Experimental: In order to measure atopic dermatitis improvement effect, the anti-inflammatory compositions were prepared according to the following Examples. Here, the atopic dermatitis improvement effect was measured using an eczema area severity index (EASI) score. 30 pediatric patients with atopic dermatitis were treated twice a day for 4 weeks, and then effects on atopic symptoms were measured.

## CCCCC(CC)C(=O)NC(CO)CO (stereo not shown) [Example 1, N-(1,3-dihydroxypropan-2-yl)-2-ethylhexanamide]
[1]; in the concentration range of the evaluation method
  Cytotoxicity: no cytotoxicity
[1]; used amount 0.00064 μM
  Cell viability (%): 110%
[1]; used amount 0.0032 μM
  Cell viability (%): 106%
[1]; used amount 0.016 μM
  Cell viability (%): 99%
[1]; used amount 0.08 μM
  Cell viability (%): 100%
[1]; used amount 0.4 μM
  Cell viability (%): 98%
[1]; used amount 2 μM
  Cell viability (%): 101%
[1]; used amount 10 μM
  Cell viability (%): 101%
[1]; used amount 50 μM
  Cell viability (%): 101%
[1]; used amount 250 μM
  Cell viability (%): 108%
IL-8
  inhibition at 100 µM: ≥ 48.5%
IL-17A
  inhibition at 100 µM: ≥ 58.9%
Atopic dermatitis
  Atopic dermatitis improvement effect (EASI score): significant numerical decrease
